Test results as given in ChEMBL document CHEMBL2040848, “Synthesis and bioactivity evaluation of rhodanine derivatives as potential anti-bacterial agents” (2012).
≈ marks a conversion by molar mass, not a printed value.

Experiments:
Type in all cases: functional
[1] = test system: Staphylococcus aureus; assay: Antibacterial activity against methicillin-resistant Staphylococcus aureus CCARM 3167 after 24 hrs by two-fold serial dilution method; conditions: CCARM 3167, 24 h
[2] = test system: Staphylococcus aureus; assay: Ratio of MIC for norfloxacin to compound for quinolone-resistant Staphylococcus aureus CCARM 3519 after 24 hrs by two-fold serial dilution method
[3] = test system: Staphylococcus aureus; assay: Antibacterial activity against Staphylococcus aureus KCTC 503 after 24 hrs by two-fold serial dilution method; conditions: KCTC 503, 24 h
[4] = test system: Staphylococcus aureus; assay: Antibacterial activity against quinolone-resistant Staphylococcus aureus CCARM 3505 after 24 hrs by two-fold serial dilution method; conditions: CCARM 3505, 24 h
[5] = test system: Staphylococcus aureus; assay: Antibacterial activity against quinolone-resistant Staphylococcus aureus CCARM 3519 after 24 hrs by two-fold serial dilution method; conditions: CCARM 3519, 24 h
[6] = test system: Staphylococcus aureus; assay: Ratio of MIC for oxacillin to compound for methicillin-resistant Staphylococcus aureus CCARM 3167 after 24 hrs by two-fold serial dilution method
[7] = test system: Staphylococcus aureus; assay: Ratio of MIC for norfloxacin to compound for methicillin-resistant Staphylococcus aureus CCARM 3167 after 24 hrs by two-fold serial dilution method
[8] = test system: Staphylococcus aureus; assay: Ratio of MIC for norfloxacin to compound for quinolone-resistant Staphylococcus aureus CCARM 3505 after 24 hrs by two-fold serial dilution method
[9] = test system: Staphylococcus aureus; assay: Antibacterial activity against Staphylococcus aureus KCTC 4220 after 24 hrs by two-fold serial dilution method; conditions: KCTC 4220, 24 h
[10] = test system: Staphylococcus aureus; assay: Antibacterial activity against Staphylococcus aureus KCTC 209 after 24 hrs by two-fold serial dilution method; conditions: KCTC 209, 24 h
[11] = test system: Staphylococcus aureus; assay: Ratio of MIC for oxacillin to compound for methicillin-resistant Staphylococcus aureus CCARM 3506 after 24 hrs by two-fold serial dilution method
[12] = test system: Staphylococcus aureus; assay: Ratio of MIC for norfloxacin to compound for methicillin-resistant Staphylococcus aureus CCARM 3506 after 24 hrs by two-fold serial dilution method
[13] = test system: Staphylococcus aureus; assay: Antibacterial activity against methicillin-resistant Staphylococcus aureus CCARM 3506 after 24 hrs by two-fold serial dilution method; conditions: CCARM 3506, 24 h
[14] = test system: Escherichia coli; assay: Antibacterial activity against Escherichia coli 1356 after 24 hrs by two-fold serial dilution method; conditions: Escherichia coli, 1356, 24 h
[15] = test system: Staphylococcus aureus; assay: Ratio of MIC for norfloxacin to compound for Staphylococcus aureus KCTC 209 after 24 hrs by two-fold serial dilution method
[16] = test system: Staphylococcus aureus; assay: Ratio of MIC for norfloxacin to compound for Staphylococcus aureus KCTC 503 after 24 hrs by two-fold serial dilution method
[17] = test system: Staphylococcus aureus; assay: Ratio of MIC for norfloxacin to compound for Staphylococcus aureus KCTC 4220 after 24 hrs by two-fold serial dilution method

Structure (SMILES) | MIC [1] | Ratio [2] | MIC [3] | MIC [4] | MIC [5] | Ratio [6] | Ratio [7] | Ratio [8] | MIC [9] | MIC [10] | Ratio [11] | Ratio [12] | MIC [13] | MIC [14] | Ratio [15] | Ratio [16] | Ratio [17]
O=C(COc1ccc(/C=C2\SC(=S)N([C@@H](Cc3ccccc3)C(=O)O)C2=O)cc1)c1ccc(F)cc1 | 1 µg/mL (≈ 1.92 µM) | 64 | 4 µg/mL (≈ 7.67 µM) | 1 µg/mL (≈ 1.92 µM) | 1 µg/mL (≈ 1.92 µM) | 64 | 4 | 64 | 4 µg/mL (≈ 7.67 µM) | 4 µg/mL (≈ 7.67 µM) | 64 | 4 | 1 µg/mL (≈ 1.92 µM) | > 64 µg/mL | – | – | –
O=C(COc1ccc(/C=C2\SC(=S)N([C@@H](Cc3c[nH]c4ccccc34)C(=O)O)C2=O)cc1)c1cccc(Cl)c1 | 1 µg/mL (≈ 1.73 µM) | 64 | 4 µg/mL (≈ 6.93 µM) | 1 µg/mL (≈ 1.73 µM) | 1 µg/mL (≈ 1.73 µM) | 64 | 4 | 64 | 8 µg/mL (≈ 13.9 µM) | 4 µg/mL (≈ 6.93 µM) | 64 | 4 | 1 µg/mL (≈ 1.73 µM) | > 64 µg/mL | – | – | –
O=C(COc1ccc(/C=C2\SC(=S)N([C@@H](Cc3c[nH]c4ccccc34)C(=O)O)C2=O)cc1)c1ccc(Cl)cc1 | 1 µg/mL (≈ 1.73 µM) | 64 | 1 µg/mL (≈ 1.73 µM) | 1 µg/mL (≈ 1.73 µM) | 1 µg/mL (≈ 1.73 µM) | 64 | 4 | 64 | 1 µg/mL (≈ 1.73 µM) | 1 µg/mL (≈ 1.73 µM) | 64 | 4 | 1 µg/mL (≈ 1.73 µM) | > 64 µg/mL | 2 | 2 | 2
O=C(COc1ccc(/C=C2\SC(=S)N([C@@H](Cc3c[nH]c4ccccc34)C(=O)O)C2=O)cc1)c1ccc(F)cc1 | 4 µg/mL (≈ 7.13 µM) | – | 4 µg/mL (≈ 7.13 µM) | 4 µg/mL (≈ 7.13 µM) | 4 µg/mL (≈ 7.13 µM) | – | – | – | 4 µg/mL (≈ 7.13 µM) | 4 µg/mL (≈ 7.13 µM) | – | – | 4 µg/mL (≈ 7.13 µM) | > 64 µg/mL | – | – | –
O=C(COc1ccc(/C=C2\SC(=S)N([C@@H](Cc3c[nH]c4ccccc34)C(=O)O)C2=O)cc1)c1ccccc1 | 8 µg/mL (≈ 14.7 µM) | – | 8 µg/mL (≈ 14.7 µM) | 8 µg/mL (≈ 14.7 µM) | 8 µg/mL (≈ 14.7 µM) | – | – | – | 8 µg/mL (≈ 14.7 µM) | 8 µg/mL (≈ 14.7 µM) | – | – | 8 µg/mL (≈ 14.7 µM) | > 64 µg/mL | – | – | –
Cc1ccc(C(=O)COc2ccc(/C=C3\SC(=S)N([C@@H](Cc4c[nH]c5ccccc45)C(=O)O)C3=O)cc2)cc1 | 4 µg/mL (≈ 7.19 µM) | – | 4 µg/mL (≈ 7.19 µM) | 4 µg/mL (≈ 7.19 µM) | 8 µg/mL (≈ 14.4 µM) | – | – | – | 8 µg/mL (≈ 14.4 µM) | 4 µg/mL (≈ 7.19 µM) | – | – | 8 µg/mL (≈ 14.4 µM) | > 64 µg/mL | – | – | –
COc1cccc(C(=O)COc2ccc(/C=C3\SC(=S)N([C@@H](Cc4c[nH]c5ccccc45)C(=O)O)C3=O)cc2)c1 | 8 µg/mL (≈ 14 µM) | – | 8 µg/mL (≈ 14 µM) | 8 µg/mL (≈ 14 µM) | 8 µg/mL (≈ 14 µM) | – | – | – | 8 µg/mL (≈ 14 µM) | 8 µg/mL (≈ 14 µM) | – | – | 8 µg/mL (≈ 14 µM) | > 64 µg/mL | – | – | –
COc1ccccc1C(=O)COc1ccc(/C=C2\SC(=S)N([C@@H](Cc3c[nH]c4ccccc34)C(=O)O)C2=O)cc1 | 8 µg/mL (≈ 14 µM) | – | 8 µg/mL (≈ 14 µM) | 8 µg/mL (≈ 14 µM) | 8 µg/mL (≈ 14 µM) | – | – | – | 8 µg/mL (≈ 14 µM) | 8 µg/mL (≈ 14 µM) | – | – | 8 µg/mL (≈ 14 µM) | > 64 µg/mL | – | – | –
O=C(O)CN1C(=O)C(=Cc2ccc(/C=C/C(=O)c3ccc(Cl)cc3Cl)cc2)SC1=S | 2 µg/mL (≈ 4.18 µM) | – | 2 µg/mL (≈ 4.18 µM) | 2 µg/mL (≈ 4.18 µM) | 2 µg/mL (≈ 4.18 µM) | – | – | – | 2 µg/mL (≈ 4.18 µM) | 2 µg/mL (≈ 4.18 µM) | – | – | 2 µg/mL (≈ 4.18 µM) | > 64 µg/mL | – | – | –
CCn1cc(C(=O)O)c(=O)c2cc(F)c(N3CCNCC3)cc21 [NORFLOXACIN] | 8 µg/mL (≈ 25.1 µM) | – | 2 µg/mL (≈ 6.26 µM) | > 64 µg/mL | > 64 µg/mL | – | – | – | 2 µg/mL (≈ 6.26 µM) | 2 µg/mL (≈ 6.26 µM) | – | – | 4 µg/mL (≈ 12.5 µM) | 16 µg/mL (≈ 50.1 µM) | – | – | –
Cc1onc(-c2ccccc2)c1C(=O)N[C@@H]1C(=O)N2[C@@H]1SC(C)(C)[C@@H]2C(=O)O [OXACILLIN] | > 64 µg/mL | – | 1 µg/mL (≈ 2.49 µM) | 1 µg/mL (≈ 2.49 µM) | 1 µg/mL (≈ 2.49 µM) | – | – | – | 1 µg/mL (≈ 2.49 µM) | 1 µg/mL (≈ 2.49 µM) | – | – | > 64 µg/mL | > 64 µg/mL | – | – | –
